Values joined by “and” are separate entries in the source; they are usually repeats but may differ in a detail not shown here. Equal values may be shown once. Toxic doses and inconclusive results are not listed. The calls were made as follows: active = survival T/C of 150% or more; inactive = T/C below 125% in these data.
System: P388 leukemia ip, CD2F1 mice, survival T/C
Test: NCI In Vivo Anticancer Drug Screen. Data for tumor model P388 Leukemia (intraperitoneal) in CD2F1 (CDF1) mice
Conditions: endpoint: median survival time, higher = longer survival
How it was run: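 Mice carrying the transplanted tumor received test compound or vehicle. Survival was recorded in each group, and the value is the treated-group measurement divided by that of the vehicle-treated control group.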

[1] = dose: 25.0 mg/kg/injection, schedule: Q01DX005 (ip), vehicle: saline with Tween-80
[2] = dose: 50.0 mg/kg/injection, schedule: Q01DX005 (ip), vehicle: saline with Tween-80
[3] = dose: 100.0 mg/kg/injection, schedule: Q01DX005 (ip), vehicle: saline with Tween-80
[4] = dose: 200.0 mg/kg/injection, schedule: Q01DX005 (ip), vehicle: saline with Tween-80
[5] = dose: 50.0 mg/kg/injection, schedule: Q01DX009 (ip), vehicle: Klucel (hydroxypropylcellulose) (HPC)
[6] = dose: 100.0 mg/kg/injection, schedule: Q01DX009 (ip), vehicle: Klucel (hydroxypropylcellulose) (HPC)
[7] = dose: 200.0 mg/kg/injection, schedule: Q01DX009 (ip), vehicle: Klucel (hydroxypropylcellulose) (HPC)

Measured: T/C

COc1cc2c(cc1C(C)c1ccc(OC(C)C)cc1)OCO2 (stereo not given)
inactive: [1] 103 % of control | [2] 98 % of control | [3] 100 % of control | [4] 98 % of control

N#CC1C(=O)NC(=S)NC1CCc1ccccc1 (stereo not given)
inactive: [5] 105 % of control | [6] 99 % of control | [7] 100 % of control

CN(C)CCCO[Si](C)(c1ccccc1)c1ccc(F)cc1 (stereo not given)
inactive: dose: 12.5 mg/kg/injection, schedule: Q01DX009 (ip), vehicle: saline with Tween-80 105 % of control | dose: 25.0 mg/kg/injection, schedule: Q01DX009 (ip), vehicle: saline with Tween-80 101 % of control | dose: 50.0 mg/kg/injection, schedule: Q01DX009 (ip), vehicle: saline with Tween-80 110 % of control and 97 % of control | dose: 100.0 mg/kg/injection, schedule: Q01DX009 (ip), vehicle: saline with Tween-80 86 % of control

O=C(Nc1cccc(Br)c1)Oc1cccc2cccnc12
inactive: dose: 60.0 mg/kg/injection, schedule: Q01DX005 (ip), vehicle: saline with Tween-80 105 % of control | dose: 120.0 mg/kg/injection, schedule: Q01DX005 (ip), vehicle: saline with Tween-80 94 % of control | dose: 240.0 mg/kg/injection, schedule: Q01DX005 (ip), vehicle: saline with Tween-80 90 % of control

O=C(NC(=S)c1ccc(Br)cc1)NS(=O)(=O)c1ccccc1
inactive: dose: 100.0 mg/kg/injection, schedule: Q01DX001 (ip), vehicle: saline with Tween-80 107 % of control | dose: 200.0 mg/kg/injection, schedule: Q01DX001 (ip), vehicle: saline with Tween-80 102 % of control | dose: 400.0 mg/kg/injection, schedule: Q01DX001 (ip), vehicle: saline with Tween-80 102 % of control

CC(=O)NC1CCC(C2CCCCC2)CC1C1CCCCC1 (stereo not given)
inactive: [2] 107 % of control | [3] 98 % of control | [4] 102 % of control

COc1ccc(CC(C)NCC(O)c2ccc(O)c(NC=O)c2)cc1 (stereo not given)
inactive: dose: 6.25 mg/kg/injection, schedule: Q01DX009 (ip), vehicle: saline 100 % of control | dose: 12.5 mg/kg/injection, schedule: Q01DX009 (ip), vehicle: saline 101 % of control | dose: 25.0 mg/kg/injection, schedule: Q01DX009 (ip), vehicle: saline 99 % of control | dose: 50.0 mg/kg/injection, schedule: Q01DX009 (ip), vehicle: suspension in saline 99 % of control | dose: 200.0 mg/kg/injection, schedule: Q01DX009 (ip), vehicle: suspension in saline 91 % of control

CCCCCCCCCCCC1N=C(N)N=C(N)N1c1cccc(Br)c1 (stereo not given)
inactive: dose: 12.5 mg/kg/injection, schedule: Q01DX005 (ip), vehicle: saline with Tween-80 100 % of control | [1] 112 % of control | [2] 97 % of control

O=[N+]([O-])c1ccc(/C=C/C=C/c2ccc(S(=O)(=O)F)cc2)c(Cl)c1
inactive: [5] 93 % of control | [6] 93 % of control | [7] 97 % of control

Cc1[nH]nc2c1NC(=O)OC2
inactive: [2] 104 % of control | [3] 104 % of control | [4] 106 % of control

CC1CCOC(C)O1 (stereo not given)
inactive: dose: 100.0 mg/kg/injection, schedule: Q04DX003 (ip), vehicle: saline 100 % of control | dose: 200.0 mg/kg/injection, schedule: Q04DX003 (ip), vehicle: saline 104 % of control | dose: 400.0 mg/kg/injection, schedule: Q04DX003 (ip), vehicle: saline 101 % of control

N#CC1CCCC(C#N)N1 (stereo not given)
inactive: dose: 6.25 mg/kg/injection, schedule: Q01DX005 (ip), vehicle: saline 100 % of control | dose: 12.5 mg/kg/injection, schedule: Q01DX005 (ip), vehicle: saline 88 % of control | dose: 25.0 mg/kg/injection, schedule: Q01DX005 (ip), vehicle: saline 100 % of control

COc1ccc(-c2cc(=O)c3cc(C)c(C)c(C#N)c3o2)cc1
inactive: dose: 3.75 mg/kg/injection, schedule: Q01DX005 (ip), vehicle: Klucel (hydroxypropylcellulose) (HPC) 120 % of control | dose: 7.5 mg/kg/injection, schedule: Q01DX005 (ip), vehicle: Klucel (hydroxypropylcellulose) (HPC) 93 % of control | dose: 15.0 mg/kg/injection, schedule: Q01DX005 (ip), vehicle: Klucel (hydroxypropylcellulose) (HPC) 109 % of control | dose: 120.0 mg/kg/injection, schedule: Q01DX005 (ip), vehicle: Klucel (hydroxypropylcellulose) (HPC) 86 % of control

Cn1nnc(-c2ccc([N+](=O)[O-])cc2)n1
inactive: dose: 100.0 mg/kg/injection, schedule: Q04DX003 (ip), vehicle: Klucel (hydroxypropylcellulose) (HPC) 105 % of control | dose: 200.0 mg/kg/injection, schedule: Q04DX003 (ip), vehicle: Klucel (hydroxypropylcellulose) (HPC) 103 % of control | dose: 400.0 mg/kg/injection, schedule: Q04DX003 (ip), vehicle: Klucel (hydroxypropylcellulose) (HPC) 103 % of control

COc1ccn(C2CCCCO2)c(=O)n1 (stereo not given)
inactive: dose: 50.0 mg/kg/injection, schedule: Q01DX005 (ip), vehicle: saline 108 % of control | dose: 100.0 mg/kg/injection, schedule: Q01DX005 (ip), vehicle: saline 108 % of control | dose: 200.0 mg/kg/injection, schedule: Q01DX005 (ip), vehicle: saline 108 % of control
